How the values were obtained:
Type in all cases: cell-based
ACHN = experiment: cell proliferation assay, ACHN; conditions: Homo sapiens, Kidney
Protocol: (§1) Cells were seeded in 96-well plates and maintained for 5 days in the presence of 0.5 to 20 μM of individual compound, and cell proliferation was measured by the sulforhodamine B (SRB) assay as described previously (see, for example, Palakurthi, S. S. et al. Cancer Research 2000, 60(11), 2919-2925). Briefly, at the end of a 5-day treatment, cells were fixed in 10% cold trichloroacetic acid. Cell number was estimated by measuring the remaining bound dye of sulforhodamine B after washing. The percentage of growth was calculated by using the equation: 100×[(T−T0)/(C−T0)], where T and C represent the absorbance in treated and control cultures at Day 5, and T0 at time zero, respectively. If T is less than T0, cell death has occurred and can be calculated from 100×[(T−T0)/T0].

A-549 = experiment: cell proliferation assay, A-549; conditions: Homo sapiens, A549; A-549, Lung
Protocol: as §1

ASPC-1 = experiment: cell proliferation assay, ASPC-1; conditions: Homo sapiens, ASPC1; ASPC-1, Pancreas; read-out: IC50
Protocol: as §1
The compounds shown in Table 7 were evaluated using for activation of HRI using the dual luciferase surrogate eIF2α phosphorylation assay (see, for example, Chen, T. et al. Nature Chem Biol 2011, 7, 610-616) and for inhibition of cell proliferation using the SRB assay (see, for example, Palakurthi, S. S. et al. Cancer Res 2000, 60, 2919-2925) as described above.

BAF-3 = experiment: cell proliferation assay, BAF-3; conditions: Mus musculus, BaF3; BAF-3, Leukemia
Protocol: as §1

[1] = system: CRL-2813 human melanoma cancer cells transfected with HRI-targeting or non-targeting siRNA; experiment: cell proliferation (SRB) assay after HRI knockdown; conditions: CRL-2813 cells, FIG. 10
Protocol: as §1
Cell proliferation is a meaningful read-out for determining the specificity of a compound as it captures both on-target and off-target effects of the compound under study. […] If these compounds specifically activate HRI and this activity is required for the inhibition of cell proliferation, then reducing the expression of HRI should blunt their effect on cell proliferation. For this purpose, expression of HRI was knocked down in CRL-2813 human melanoma (about 70% knockdown efficiency) and MCF-7 human breast cancer cells (about 90% knockdown efficiency). These two cell lines were chosen because the HRI knockdown efficiency is lower in CRL-2813 than in MCF-7 cells providing a sort of dose-response data that correlates knockdown efficiency with the resistance of cells to inhibition of cell proliferation. […] Referring to FIG. 5A, CRL-2813 human melanoma cancer cells, and (FIG. 5B) MCF-7 human breast cancer cells were transfected with HRI targeted or non-targeted siRNA, treated with the indicated concentrations of I-6p and cell proliferation was measured by SRB assay. Calculated IC50 for all four compounds tested in CRL-2813 human melanoma cancer cells and MCF-7 human breast cancer cells transfected with non-target siRNA control (NTC) or HRI is shown in FIG. 5C and FIG. 5D, respectively. The experiment was conducted in triplicate and each experiment was independently performed three times. Data are shown as Mean±S.E.M. *NTC=non-target siRNA control.
Referring to FIG. 8, CRL-2813 human melanoma cancer cells were transfected with HRI targeted or non-targeted siRNA, treated with the indicated concentrations of (A) I-14, (B) I-15, (C) III-4 and (D) III-5 and cell proliferation was measured by SRB assay. Calculated IC50 for all four compounds tested in CRL-2813 human melanoma cancer cells transfected with non-target siRNA control (NTC) or HRI is shown in (E). The experiment was conducted in triplicate and each experiment was independently performed three times. Data are shown as Mean±S.E.M. *NTC=non-target siRNA control, IC50=effective dose of drug that inhibit cell proliferation by 50%.
In general, if the affinity of compounds for their molecular target is increased this should result in higher specificity of the compounds in the cell proliferation assay. […] These five compounds, two with average and three with high potency, were tested in cell proliferation assay using CRL-2813 cells transfected with non-targeted siRNA or HRI-targeted siRNA as described above.

## O=C(Nc1cccc(C(F)(F)F)c1)NC1CCC(Oc2ccc(OC(F)(F)F)cc2)CC1 (centres unmarked) [Compound I-17, 1-(4-(4-(trifluoromethoxy)phenoxy)cyclohexyl)-3-(3-(trifluoromethyl)phenyl)urea]
ACHN
  IC50: 1400 nM
A-549
  IC50: 900 nM
ASPC-1
  IC50: 2400 nM
BAF-3
  IC50: 800 nM
[1]
  fold higher IC50 values in cells transfected with HRI-targeting siRNA vs. non-targeting siRNA: ~6 fold

From US20160318856A1, “Substituted Urea eIF2alpha Kinase Activators” (THE BRIGHAM AND WOMEN'S HOSPITAL, INC., priority 2013, published 2016)
